Test results: paper PMC5772633 (Scientific Reports, 2018)
“And” between values parts separate entries of the source, which are not always exact repeats. Equal entries are not always repeated.

Experiments:
[1] = molecular target: D3R; conditions: Table 1; cited from earlier work
[2] = molecular target: T1, human D3 receptor mutant I183F (Homo sapiens, UniProt P35462, I183F); assay: Radioligand binding assay, D3R mutant I183F
T1 construct: Flag tag (N); His tag (C); expressed in transfected cells; host or cells: SF9 insect cells (membranes)
Protocol: (§1) The D3R mutations were located in the OBS or the vicinity of the OBS and were performed on nine different residues (Fig. 1).
(§2) Point mutants were made by site-directed mutagenesis using 0.5 μl Takara’s PrimeStar Hot start polymerase with 20ng D3R wild type template plasmid DNA, 5 × PrimeStar buffer, 4 μl dNTP mix (2.5 mM each dNTP), plus 0.5 μg forward and reverse primers. 18 cycles were performed at 98 °C for 30 seconds, 55 °C for 30 seconds and 72 °C for 6.5 minutes. The template was degraded with DpnI for 1 hr and transformed into DH5α competent cells.
(§3) Mutants were expressed in SF9 insect cells for 48 hrs with an approximate MOI of 5. A list of mutagenesis primers used can be found in Table S3.
(§4) Binding assays were performed on membranes prepared from transiently transfected human D3 receptor mutants in SF9 insect cells. Frozen cell paste was homogenized by Polytron in 50 mM Tris HCl buffer (pH 7.4 at 4 degrees C) containing 2.0 mM MgCl2. […] 7-OH-DPAT levels were determined by liquid scintillation counting of the filterplates in Ecolume scintillation fluid. […] Ki values were calculated according to the Cheng- Prusoff equation, Ki = IC50/(1 + (L/Kd)), where L is the concentration of the radioligand used in the experiment and the Kd value is the dissociation constant for the radioligand at the mutant receptor (determined previously by saturation analysis).

[3] = molecular target: T2, human D3 receptor mutant Y365L (Homo sapiens, UniProt P35462); assay: Radioligand binding assay, D3R mutant Y365L; conditions: two replicas
T2 construct: Flag tag (N); His tag (C); expressed in transfected cells; host or cells: SF9 insect cells (membranes)
Protocol: as §1, §2, §3, §4

[4] = molecular target: T3, human D3 receptor mutant V189I (Homo sapiens, UniProt P35462, V189I); assay: Radioligand binding assay, D3R mutant V189I; conditions: two replicas
T3 construct: Flag tag (N); His tag (C); expressed in transfected cells; host or cells: SF9 insect cells (membranes)
Protocol: as §1, §2, §3, §4

[5] = set-up: method as in PMID 27715007; conditions: in vivo; cited from earlier work
[6] = molecular target: T4, human D3 receptor mutant Y36F (Homo sapiens, UniProt P35462, Y36F); assay: Radioligand binding assay, D3R mutant Y36F; conditions: two replicas
T4 construct: Flag tag (N); His tag (C); expressed in transfected cells; host or cells: SF9 insect cells (membranes)
Protocol: as §1, §2, §3, §4

[7] = molecular target: T5, wt-D3R (Homo sapiens, UniProt P35462); assay: Radioligand ([3H]7-OH-DPAT) binding assay, wild type D3R membranes from SF9 cells
T5 construct: Flag tag (N); His tag (C); expressed in transfected cells; host or cells: SF9 insect cells (membranes), pFastbac/baculovirus

[8] = molecular target: T6, human D3 receptor mutant S182I (Homo sapiens, UniProt P35462, S182I); assay: Radioligand binding assay, D3R mutant S182I; conditions: two replicas
T6 construct: Flag tag (N); His tag (C); expressed in transfected cells; host or cells: SF9 insect cells (membranes)
Protocol: as §1, §2, §3, §4

[9] = molecular target: human D3 receptor triple mutant Y36L, S182I, V350I (Homo sapiens, UniProt P35462, S182I/V350I/Y36L); assay: Radioligand binding assay, D3R triple mutant; conditions: two replicas
Protocol: as §1, §2, §3, §4

[10] = molecular target: T7, human D3 receptor mutant C114L (Homo sapiens, UniProt P35462, C114L); assay: Radioligand binding assay, D3R mutant C114L; conditions: two replicas
T7 construct: Flag tag (N); His tag (C); expressed in transfected cells; host or cells: SF9 insect cells (membranes)
Protocol: as §1, §2, §3, §4

[11] = molecular target: human D3 receptor mutant Y373F (Homo sapiens, UniProt P35462, Y373F); assay: Radioligand binding assay, D3R mutant Y373F; conditions: two replicas
Protocol: as §1, §2, §3, §4

[12] = molecular target: T8, human D3 receptor mutant E90L (Homo sapiens, UniProt P35462, E90L); assay: Radioligand binding assay, D3R mutant E90L; conditions: two replicas
T8 construct: Flag tag (N); His tag (C); expressed in transfected cells; host or cells: SF9 insect cells (membranes)
Protocol: as §1, §2, §3
Binding assays were performed on membranes prepared from transiently transfected human D3 receptor mutants in SF9 insect cells. Frozen cell paste was homogenized by Polytron in 50 mM Tris HCl buffer (pH 7.4 at 4 degrees C) containing 2.0 mM MgCl2. The cell membranes were spun in a high-speed centrifuge at 40,000 × g for ten minutes. The final pellet was re-suspended in assay buffer (50 mM Tris buffer, 120 mM NaCl, 5 mM MgCl2, 5 mM KCl, 2 mM CaCl2, pH 7.4 at 37 °C). […] 7-OH-DPAT levels were determined by liquid scintillation counting of the filterplates in Ecolume scintillation fluid.

[13] = molecular target: T9, human D3 receptor mutant E90Q (Homo sapiens, UniProt P35462, E90Q); assay: Radioligand binding assay, D3R mutant E90Q; conditions: two replicas
T9 construct: Flag tag (N); His tag (C); expressed in transfected cells; host or cells: SF9 insect cells (membranes)
Protocol: as §1, §2, §3, §4

[14] = molecular target: T10, human D3 receptor mutant Y36L (Homo sapiens, UniProt P35462, Y36L); assay: Radioligand binding assay, D3R mutant Y36L; conditions: two replicas
T10 construct: Flag tag (N); His tag (C); expressed in transfected cells; host or cells: SF9 insect cells (membranes)
Protocol: as §1, §2, §3, §4

[15] = molecular target: T11, human D3 receptor mutant V189A (Homo sapiens, UniProt P35462, V189A); assay: Radioligand binding assay, D3R mutant V189A
T11 construct: Flag tag (N); His tag (C); expressed in transfected cells; host or cells: SF9 insect cells (membranes)
Protocol: as §1, §2, §3, §4

[16] = test system: D2R; set-up: method as in PMID 27715007; conditions: cited from earlier work

SMILES: CCc1cc(Cl)c(OC)c(C(=O)NC[C@@H]2CCCN2CC)c1O [Compound 2, Eticlopride]
- Ki [1]: 0.24 nM

SMILES: CCN1CCO[C@@H](c2ccc(NS(=O)(=O)c3ccc(C(C)C)cc3)c(C)c2)C1 [Compound 1, PF-4363467]
- Ki ([2]; D3R mutant I183F, two replicas): 55 nM and 43 nM
- decrease in affinity (fold-shift Ki mutant/Ki wt) ([2]; I183F mutant vs wt D3R): 14 fold
- Ki [3]: 13.1 nM and 12.5 nM
- Ki [4]: 8.2 nM and 6.5 nM
- locomotor or catalepsy side effects [5]: lack of locomotor or catalepsy side effects
- Ki [6]: 3.2 nM and 2.5 nM
- Ki ([7]; wild type D3R, Table 1): 3.4 ± 0.4 nM
- ΔGexp (experimental binding free energy) ([7]; wt D3R): -11.6 kcal/mol
- Ki [8]: 3.6 nM and 2.1 nM
- Ki [9]: 29.5 nM and 22 nM
- Ki [10]: 1.6 nM and 1.3 nM
- Ki [11]: 14.8 nM and 15.8 nM
- Ki [12]: 4.9 nM and 3.7 nM
- Ki [13]: 6 nM and 5.4 nM
- Ki [14]: 22 nM and 13 nM
- Ki ([15]; D3R mutant V189A, two replicas): 24 nM and 30 nM
- decrease in affinity (fold-shift Ki mutant/Ki wt) ([15]; V189A mutant vs wt D3R): 8 fold
- D2R receptor occupancy [16]: 86%
